Legend:
Conditions in all cases: 72 h
[1] = tested on: Caco-2; assay: cell viability relative to DMSO; higher = less toxic
[2] = tested on: Calu-3; assay: as above
[3] = tested on: HepG2; assay: as above
[4] = tested on: U2OS; assay: as above
[5] = tested on: Vero E6; assay: as above
[6] = tested on: Caco-2; assay: relative viability EC50 (midpoint between 100% and the lowest measured viability); higher = less toxic
[7] = tested on: Calu-3; assay: as above
[8] = tested on: HepG2; assay: as above
[9] = tested on: U2OS; assay: as above
[10] = tested on: Vero E6; assay: as above
[11] = tested on: Caco-2; assay: drug sensitivity score (DSS) for viability; higher = more toxic; extreme values may be limits of the assay
[12] = tested on: Calu-3; assay: as above
[13] = tested on: HepG2; assay: as above
[14] = tested on: U2OS; assay: as above
[15] = tested on: Vero E6; assay: as above

Structure (SMILES)	cell viability ([1]; 1 nM) [%]	cell viability ([1]; 10 nM) [%]	cell viability ([1]; 100 nM) [%]	cell viability ([1]; 1000 nM) [%]	cell viability ([1]; 10000 nM) [%]	cell viability ([2]; 1 nM) [%]	cell viability ([2]; 10 nM) [%]	cell viability ([2]; 100 nM) [%]	cell viability ([2]; 1000 nM) [%]	cell viability ([2]; 10000 nM) [%]	cell viability ([3]; 1 nM) [%]	cell viability ([3]; 10 nM) [%]	cell viability ([3]; 100 nM) [%]	cell viability ([3]; 1000 nM) [%]	cell viability ([3]; 10000 nM) [%]	cell viability ([4]; 1 nM) [%]	cell viability ([4]; 10 nM) [%]	cell viability ([4]; 100 nM) [%]	cell viability ([4]; 1000 nM) [%]	cell viability ([4]; 10000 nM) [%]	cell viability ([5]; 1 nM) [%]	cell viability ([5]; 10 nM) [%]	cell viability ([5]; 100 nM) [%]	cell viability ([5]; 1000 nM) [%]	cell viability ([5]; 10000 nM) [%]	relative viability EC50 [6] [µM]	relative viability EC50 [7] [µM]	relative viability EC50 [8] [µM]	relative viability EC50 [9] [µM]	relative viability EC50 [10] [µM]	drug sensitivity score [11]	drug sensitivity score [12]	drug sensitivity score [13]	drug sensitivity score [14]	drug sensitivity score [15]
CNC(=O)c1c(C)oc2cc(Oc3ncnc4cc(OC)c(OC)cc34)ccc12 [fruquintinib]	90	97.4	97.8	98.9	94.7	103	103	98.7	107	98.8	107	109	100	86.5	103	102	104	102	102	90.8	96.1	93.4	102	94.5	91.6	> 10	> 10	> 10	> 10	> 10	0	0	0	0	0
C[C@H]1CO[C@@H]2Cn3cc(C(=O)NCc4ccc(F)cc4F)c(=O)c(O)c3C(=O)N12	107	90.1	98	98.5	81.6	109	94	104	95.2	92.2	104	112	97.1	112	56.9	95.6	92.4	99.4	92.2	88.5	88.9	99.7	94.3	97.5	89.6	> 10	> 10	–	> 10	> 10	0.6	0	1.6	0	0
C[C@]12CC[C@H](O)CC1=CC[C@@H]1[C@@H]2CC[C@]2(C)C(n3cnc4ccccc43)=CC[C@@H]12 [galeterone]	95.6	102	89.1	88.3	45.9	91.9	95	85.5	99.6	90.2	97.8	102	97.5	99.3	77.4	96.4	102	93.4	95.1	92.9	100	99	102	99.2	74.5	1.72	> 10	> 10	> 10	–	4.6	0	0.9	0	1.1
O=C(NC1CCN(Cc2ccccc2)CC1)c1ccc(I)cc1 [4-IBP]	104	101	99.4	103	88.8	104	104	104	95.9	102	94.5	108	104	105	68	102	99.9	101	97.6	98.8	109	106	107	101	93.2	> 10	> 10	–	> 10	> 10	0	0	1.2	0	0
CCC1(c2ccccc2)C(=O)N(COC)C(=O)N(COC)C1=O [eterobarb]	102	90.8	95.3	105	111	111	88.2	110	88.5	105	105	114	97.4	100	88.4	–	–	–	–	–	112	110	102	106	86.8	> 10	> 10	> 10	–	> 10	0	0	0	–	0
CCC1=C[C@@H]2CN3CCc4c([nH]c5ccccc45)[C@@](C(=O)OC)(C2)[C@@H]13 [catharanthine]	93.7	92.6	95.9	103	91.9	98.5	107	98.4	90.9	101	–	–	–	–	–	92.3	100	95.7	97.1	98.4	103	93.4	98.4	101	110	> 10	> 10	–	> 10	> 10	0	0	–	0	0
O=c1[nH]nc2c3c(cccc13)N=C(CN1Cc3ccccc3C1)N2 [E7449]	127	104	102	99	89.1	109	99.1	98.6	97.6	88.6	95	103	98.6	95.9	59.8	105	106	106	94.7	87.3	102	100	96.3	96.3	83.7	> 10	> 10	–	> 10	> 10	0	0.1	2.7	0.3	0.6

Reference: the supplement of paper PMC13380429
